# Results as given in PMC7462607 (eLife, 2020).
# Where “and” joins values, the source holds several entries; their conditions need not be identical. Identical values can stand only once. Like-named read-outs stand apart in the source and are kept apart here.
# Tests used:
# [1] = test system: A549 cells expressing sgRNAs (NTC, DDB1, RBX1, UBE2G1); assay: Cell viability assay, A549 cells expressing non-targeting control or sgRNAs targeting DDB1, RBX1 or UBE2G1; type: cell-based, Homo sapiens; details: for CellTiter-Glo (ATP): raw signal; for IC50: Homo sapiens
# Method: Seven hundred A549 cells or 1,000 HCT-116 cells in 50 µL of medium were plated per well in 384-well flat clear bottom white polystyrene TC-treated microplates (Corning, Corning, USA). After overnight attachment, cells were dosed with a serial dilution of HQ461 with a D300e digital dispenser (Tecan, Männedorf, Switzerland). Cell survival was measured 72 hr later using CellTiter-Glo luminescent cell viability assay kit (Promega, Madison, USA) following vendor instructions. Luminescence was recorded by EnVison multimode plate reader (PerkinElmer, Waltham, USA). IC50 was determined with GraphPad Prism using baseline correction (by normalizing to DMSO control), the asymmetric (five parameter) equation, and least squares fit.
# Two sgRNAs per gene were chosen from the Brunello library for DDB1 (5’-[…]-3’ and 5’-[…]-3’), RBX1 (5’- […]-3’ and 5’-[…]-3’), and UBE2G1 (5’-[…]-3’ and 5’- […]-3’). Annealed sgRNA oligos were cloned into the lentiCRISPR v2 vector. Lentiviral packaging was performed by co-transfecting the resulting plasmids with psPAX2 (Addgene 12260) and pMD2.G (Addgene 12259) into 293 T cells. Media collected from transfected 293 T cells was used to infect A549 cells at MOI ~ 5 for 4 days. The resulting cells were tested for their sensitivity to HQ461 using methods describe in the previous session cell viability assay.
# [2] = molecular target: T1, CDK12 (Homo sapiens, UniProt Q9NYV4); assay: Western blotting of CDK12 protein level in A549 cells; type: cell-based; details: A549, after 8 hr of treatment
# T1 construct: Western blotting of CDK12 and CCNK from A549 cells treated with HQ461; endogenous in cells; host or cells: A549
# Method: Standard SDS-PAGE and western blotting procedures were used with the following modifications. For preparation of total lysates, cells were rinsed with DPBS to remove residual medium and then lysed in 20 mM HEPES-NaOH, pH 8.0, 10 mM NaCl, 2 mM MgCl2, 1% SDS freshly supplemented with 0.5 units/µL of benzonase and 1x cOmplete, Mini, EDTA-free protease inhibitor cocktail (Roche, Bazel, Switzerland). Protein concentrations of the resulting lysates were quantified by the BCA method. Between 30 to 60 µg of proteins were resolved on SDS-PAGE and transferred to nitrocellulose membranes with a pore size of 0.5 μm. Membranes were blocked in 5% nonfat milk PBST (0.1% v/v Tween-20) for 30 min before blotting with antibodies. […]
# T1 sequence (Q9NYV4 whole entry): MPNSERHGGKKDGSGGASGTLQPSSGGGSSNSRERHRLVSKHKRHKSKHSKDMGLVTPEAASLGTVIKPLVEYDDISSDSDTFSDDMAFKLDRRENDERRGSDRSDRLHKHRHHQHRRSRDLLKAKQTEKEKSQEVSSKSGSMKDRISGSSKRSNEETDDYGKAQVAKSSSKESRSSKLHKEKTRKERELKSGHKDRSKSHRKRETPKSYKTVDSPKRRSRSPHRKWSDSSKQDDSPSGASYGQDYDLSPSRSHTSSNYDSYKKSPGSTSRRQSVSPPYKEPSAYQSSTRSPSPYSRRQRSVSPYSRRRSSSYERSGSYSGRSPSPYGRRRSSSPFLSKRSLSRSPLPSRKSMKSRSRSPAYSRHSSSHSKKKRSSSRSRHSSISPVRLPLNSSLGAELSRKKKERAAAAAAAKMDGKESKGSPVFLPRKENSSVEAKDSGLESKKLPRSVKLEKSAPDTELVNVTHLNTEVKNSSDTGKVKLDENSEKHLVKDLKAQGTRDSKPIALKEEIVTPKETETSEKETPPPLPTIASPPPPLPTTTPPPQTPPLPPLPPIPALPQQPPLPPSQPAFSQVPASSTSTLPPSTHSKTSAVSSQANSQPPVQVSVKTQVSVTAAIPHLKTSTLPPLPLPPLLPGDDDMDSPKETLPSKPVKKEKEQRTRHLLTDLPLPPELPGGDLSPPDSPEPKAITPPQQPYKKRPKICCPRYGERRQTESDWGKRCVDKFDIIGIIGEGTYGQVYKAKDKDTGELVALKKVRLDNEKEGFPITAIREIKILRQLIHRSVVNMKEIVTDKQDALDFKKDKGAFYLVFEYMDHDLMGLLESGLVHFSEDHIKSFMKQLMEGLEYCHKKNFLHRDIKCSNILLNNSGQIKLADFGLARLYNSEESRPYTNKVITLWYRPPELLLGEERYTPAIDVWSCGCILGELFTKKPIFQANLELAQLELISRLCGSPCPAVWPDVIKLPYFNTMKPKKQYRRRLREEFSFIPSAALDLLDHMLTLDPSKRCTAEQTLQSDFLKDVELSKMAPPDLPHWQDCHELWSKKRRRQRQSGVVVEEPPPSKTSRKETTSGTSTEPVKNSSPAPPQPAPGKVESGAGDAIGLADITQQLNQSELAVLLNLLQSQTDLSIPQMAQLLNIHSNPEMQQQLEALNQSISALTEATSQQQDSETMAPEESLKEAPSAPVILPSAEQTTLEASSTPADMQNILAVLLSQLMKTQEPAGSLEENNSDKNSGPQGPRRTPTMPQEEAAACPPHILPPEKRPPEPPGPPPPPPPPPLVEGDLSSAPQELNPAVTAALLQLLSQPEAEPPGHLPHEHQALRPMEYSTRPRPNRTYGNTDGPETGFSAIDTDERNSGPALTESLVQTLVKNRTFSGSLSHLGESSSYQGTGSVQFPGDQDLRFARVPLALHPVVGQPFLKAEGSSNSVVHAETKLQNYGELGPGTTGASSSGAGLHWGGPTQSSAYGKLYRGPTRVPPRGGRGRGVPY
# T1 sequence (O75909 whole entry partner): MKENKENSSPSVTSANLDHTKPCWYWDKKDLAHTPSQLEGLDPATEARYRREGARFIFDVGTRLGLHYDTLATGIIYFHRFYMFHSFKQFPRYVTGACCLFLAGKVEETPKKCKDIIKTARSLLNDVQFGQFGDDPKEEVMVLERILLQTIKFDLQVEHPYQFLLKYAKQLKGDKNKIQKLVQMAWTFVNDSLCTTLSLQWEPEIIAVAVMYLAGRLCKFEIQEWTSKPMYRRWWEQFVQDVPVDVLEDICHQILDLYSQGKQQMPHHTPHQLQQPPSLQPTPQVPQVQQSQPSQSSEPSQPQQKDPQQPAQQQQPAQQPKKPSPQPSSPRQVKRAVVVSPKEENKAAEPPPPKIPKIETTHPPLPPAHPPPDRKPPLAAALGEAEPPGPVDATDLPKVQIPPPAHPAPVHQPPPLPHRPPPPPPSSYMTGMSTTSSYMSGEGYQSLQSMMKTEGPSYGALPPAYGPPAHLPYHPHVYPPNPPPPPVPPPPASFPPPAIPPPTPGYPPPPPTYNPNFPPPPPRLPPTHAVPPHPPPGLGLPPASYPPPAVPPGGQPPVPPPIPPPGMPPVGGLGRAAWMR
smiles,measurement,setting,value
"Cc1cccc(Nc2nc(CC(=O)Nc3ncc(C)s3)cs2)n1 [HQ461, 2-(2-((6-methylpyridin-2-yl)amino)thiazol-4-yl)-N-(5-methylthiazol-2-yl)acetamide]",CellTiter-Glo (ATP),"[1]; A549 sgDDB1-1, HQ461 1.04e-6 M",266440 and 262730 and 269540
same,CellTiter-Glo (ATP),"[1]; A549 sgDDB1-1, HQ461 1.84e-6 M",260200 and 241370 and 247600
same,CellTiter-Glo (ATP),"[1]; A549 sgDDB1-1, HQ461 5e-5 M",103060 and 118120 and 131920
same,CellTiter-Glo (ATP),"[1]; A549 sgDDB1-1, HQ461 1.16E-07 M",267930 and 251180 and 224010
same,CellTiter-Glo (ATP),"[1]; A549 sgDDB1-1, HQ461 2.04E-07 M",317680 and 266950 and 274210
same,CellTiter-Glo (ATP),"[1]; A549 sgDDB1-1, HQ461 3.52E-07 M",250370 and 237750 and 246820
same,CellTiter-Glo (ATP),"[1]; A549 sgDDB1-1, HQ461 6.08E-07 M",264740 and 257780 and 224550
same,CellTiter-Glo (ATP),"[1]; A549 sgDDB1-1, HQ461 6.80E-08 M",250520 and 230710 and 232990
same,CellTiter-Glo (ATP),"[1]; A549 sgNTC, HQ461 1.04e-6 M",250120 and 267660 and 292550
same,CellTiter-Glo (ATP),"[1]; A549 sgNTC, HQ461 1.84e-6 M",177290 and 247760 and 214770
same,CellTiter-Glo (ATP),"[1]; A549 sgNTC, HQ461 2.88e-5 M",34040
same,CellTiter-Glo (ATP),"[1]; A549 sgNTC, HQ461 5e-5 M",18410 and 24360 and 23900
same,CellTiter-Glo (ATP),"[1]; A549 sgNTC, HQ461 1.16E-07 M",358110 and 293700 and 340660
same,CellTiter-Glo (ATP),"[1]; A549 sgNTC, HQ461 2.04E-07 M",291450 and 300990 and 265430
same,CellTiter-Glo (ATP),"[1]; A549 sgNTC, HQ461 3.52E-07 M",289350 and 289810 and 317840
same,CellTiter-Glo (ATP),"[1]; A549 sgNTC, HQ461 6.08E-07 M",260230 and 280040 and 269860
same,CellTiter-Glo (ATP),"[1]; A549 sgNTC, HQ461 6.80E-08 M",322880 and 295000 and 291440
same,CellTiter-Glo (ATP),"[1]; A549 sgRBX1-1, HQ461 1.04e-6 M",306380 and 286480 and 313050
same,CellTiter-Glo (ATP),"[1]; A549 sgRBX1-1, HQ461 1.84e-6 M",225540 and 237470 and 230500
same,CellTiter-Glo (ATP),"[1]; A549 sgRBX1-1, HQ461 5e-5 M",43060 and 31790 and 35930
same,CellTiter-Glo (ATP),"[1]; A549 sgRBX1-1, HQ461 1.16E-07 M",288560 and 290760 and 286800
same,CellTiter-Glo (ATP),"[1]; A549 sgRBX1-1, HQ461 2.04E-07 M",262410 and 264720 and 241220
same,CellTiter-Glo (ATP),"[1]; A549 sgRBX1-1, HQ461 3.52E-07 M",292190 and 292940 and 303380
same,CellTiter-Glo (ATP),"[1]; A549 sgRBX1-1, HQ461 6.08E-07 M",295780 and 267950 and 240730
same,CellTiter-Glo (ATP),"[1]; A549 sgRBX1-1, HQ461 6.80E-08 M",297310 and 267380 and 272530
same,CellTiter-Glo (ATP),"[1]; A549 sgUBE2G1-1, HQ461 1.04e-6 M",312980 and 335750 and 320370
same,CellTiter-Glo (ATP),"[1]; A549 sgUBE2G1-1, HQ461 1.84e-6 M",297250 and 326340 and 338010
same,CellTiter-Glo (ATP),"[1]; A549 sgUBE2G1-1, HQ461 2.88e-5 M",51820 and 43500 and 48750
same,CellTiter-Glo (ATP),"[1]; A549 sgUBE2G1-1, HQ461 5e-5 M",35610 and 27850 and 21460
same,CellTiter-Glo (ATP),"[1]; A549 sgUBE2G1-1, HQ461 1.16E-07 M",299870 and 310810 and 340290
same,CellTiter-Glo (ATP),"[1]; A549 sgUBE2G1-1, HQ461 2.04E-07 M",303360 and 350750 and 286460
same,CellTiter-Glo (ATP),"[1]; A549 sgUBE2G1-1, HQ461 3.52E-07 M",341410 and 309550 and 308880
same,CellTiter-Glo (ATP),"[1]; A549 sgUBE2G1-1, HQ461 6.08E-07 M",297850 and 310080 and 327760
same,CellTiter-Glo (ATP),"[1]; A549 sgUBE2G1-1, HQ461 6.80E-08 M",296160 and 325630 and 360740
same,IC50,"[1]; A549, independent second sgRNA, Figure 1-figure supplement 2D, read-out: IC50 on the viability of A549 cells expressing sgRNA targeting DDB1",> 28.8 µM
same,IC50,"[1]; A549, independent second sgRNA, Figure 1-figure supplement 2D, read-out: IC50 on the viability of A549 cells expressing sgRNA targeting RBX1",11 µM
same,IC50,"[1]; A549, independent second sgRNA, Figure 1-figure supplement 2D, read-out: IC50 on the viability of A549 cells expressing sgRNA targeting UBE2G1",13.6 µM
same,IC50,"[1]; A549, sgDDB1, Figure 1D, read-out: IC50 on the viability of A549 cells expressing sgRNA targeting DDB1",> 28.8 µM
same,IC50,"[1]; A549, sgNTC, Figure 1D, read-out: IC50 on the viability of A549 cells expressing non-targeting control (NTC)",2.3 µM
same,IC50,"[1]; A549, sgRBX1, Figure 1D, read-out: IC50 on the viability of A549 cells expressing sgRNA targeting RBX1",10.9 µM
same,IC50,"[1]; A549, sgUBE2G1, Figure 1D, read-out: IC50 on the viability of A549 cells expressing sgRNA targeting UBE2G1",11.9 µM
same,reduction of CDK12 protein level,[2],50%
